Assay results taken from US20060229208A1, “Use of acyl cyclohexandione derivatives in conjunction with ethephon for treating pomaceous fruit” (BASF AKTIENGESELLSCHAFT, priority 2003, published 2006).

Assays:
[1] = test system: pome fruit, specifically apples and pears; test: Applicant's experiments on floral development in the year after treatment with acylcyclohexanedione growth regulators; format: in vivo
Source text: Thus, D. Sugar, D. C. Elfving and E. A. Mielke report in Acta Hort. […] In the most extreme case, no floral development at all takes place in the year after the treatment.

[2] = test system: 12-year-old pear trees cv. "Conference" on BA rootstock; test: Flowering behavior in pears after treatment with prohexadione-calcium and ethephon (inflorescence count about one year after first application); format: in vivo
Description: 1. Flowering Behavior in Pears after Treatment with Prohexadione-calcium and Ethephon
12-year-old pear trees cv. “Conference” on BA rootstock at two different locations were treated first with prohexadione-calcium alone and secondly with a combination of prohexadione-calcium and ethephon. To this end, 4 groups of 5 trees each, which were uniformly distributed in an orchard, were sprayed with an active-ingredient-comprising spray mixture to run-off point (approx. 1000 l/ha). Three applications at intervals of approximately one month were carried out at the first location. At the second location, prohexadione-calcium was applied four times to a part of the groups of trees and three times to another part, the application interval being in each case approximately two weeks. The combination of prohexadione-calcium and ethephon was applied twice, with in each case one application with prohexadione-calcium alone being carried out before and after the combined application. Approximately one year after the first application, the number of inflorescences of untreated trees, of those which have been treated exclusively with prohexadione-calcium and of trees which had been treated with a combination of prohexadione-calcium and ethephon were counted and compared with each other.

pear trees = conditions: cited from earlier work

## CCOC(=O)C1CC(=O)C(=C(O)C2CC2)C(=O)C1 (centres unmarked) [trinexapac-ethyl]
[1]
  Floral development in the year after the treatment: markedly reduced floral development

## O=C1CC(C(=O)O)CC(=O)C1=C(O)C1CC1 (centres unmarked) [trinexapac]
[1]
  Floral development in the year after the treatment: markedly reduced floral development

## prohexadione-calcium [ProCa]
[1]
  Floral development in the year after the treatment: markedly reduced floral development
[2]; Location 1, ProCa alone 150 g/ha on 15th April, 14th May, 16th June 2002, total 450 g/ha, untreated 183
  Flowering in the subsequent year, April 2003: 137 number of inflorescences/tree
[2]; Location 2, ProCa alone four applications 120/87/87/95 g/ha (12th April, 3rd, 15th, 30th May 2002), total 389 g/ha, untreated 250
  Flowering in the subsequent year, April 2003: 157 number of inflorescences/tree
[2]; Location 2, ProCa alone three applications 120/87/87 g/ha (12th April, 3rd, 15th May 2002), total 294 g/ha, untreated 250
  Flowering in the subsequent year, April 2003: 152 number of inflorescences/tree
[2]; pear trees, Tables 1 and 2
  Floral development in the year following the treatment (summary in words): reduced floral development
Pear trees
  Subsequent flowering: reduced subsequent flowering
